Each block holds one compound with its values, some of them ahead of it.
Legend:
[1] = molecular target: Serine/threonine-protein kinase DCLK1 (Homo sapiens) (UniProt O15075); assay: Selectivity interaction (KinomeScan (DiscoverX)) EUB0000178b DCLK1; conditions: at 1 µM
[2] = molecular target: Serine/threonine-protein kinase TAO2 (Homo sapiens) (UniProt Q9UL54); assay: Selectivity interaction (KinomeScan (DiscoverX)) EUB0000178b TAOK2; conditions: at 1 µM
[3] = system: Tyrosine-protein kinase ABL1 (Homo sapiens), P00519 [M351T]; assay: (§1) Selectivity interaction (KinomeScan (DiscoverX)) EUB0000178b ABL1; conditions: at 1 µM
[4] = system: Tyrosine-protein kinase ABL1 (Homo sapiens), P00519 [Q252H]; assay: as §1; conditions: at 1 µM
[5] = system: Tyrosine-protein kinase ABL1 (Homo sapiens), P00519 [T315I]; assay: as §1; conditions: at 1 µM
[6] = molecular target: Non-receptor tyrosine-protein kinase TYK2 (Homo sapiens, UniProt P29597); assay: Selectivity interaction (Enzymatic assay) EUB0000178b TYK2
[7] = molecular target: T1, Mitogen-activated protein kinase kinase kinase 19 (Homo sapiens) (UniProt Q56UN5); assay: Selectivity interaction (KinomeScan (DiscoverX)) EUB0000138c MAP3K19; conditions: at 100 nM
T1 sequence (whole entry): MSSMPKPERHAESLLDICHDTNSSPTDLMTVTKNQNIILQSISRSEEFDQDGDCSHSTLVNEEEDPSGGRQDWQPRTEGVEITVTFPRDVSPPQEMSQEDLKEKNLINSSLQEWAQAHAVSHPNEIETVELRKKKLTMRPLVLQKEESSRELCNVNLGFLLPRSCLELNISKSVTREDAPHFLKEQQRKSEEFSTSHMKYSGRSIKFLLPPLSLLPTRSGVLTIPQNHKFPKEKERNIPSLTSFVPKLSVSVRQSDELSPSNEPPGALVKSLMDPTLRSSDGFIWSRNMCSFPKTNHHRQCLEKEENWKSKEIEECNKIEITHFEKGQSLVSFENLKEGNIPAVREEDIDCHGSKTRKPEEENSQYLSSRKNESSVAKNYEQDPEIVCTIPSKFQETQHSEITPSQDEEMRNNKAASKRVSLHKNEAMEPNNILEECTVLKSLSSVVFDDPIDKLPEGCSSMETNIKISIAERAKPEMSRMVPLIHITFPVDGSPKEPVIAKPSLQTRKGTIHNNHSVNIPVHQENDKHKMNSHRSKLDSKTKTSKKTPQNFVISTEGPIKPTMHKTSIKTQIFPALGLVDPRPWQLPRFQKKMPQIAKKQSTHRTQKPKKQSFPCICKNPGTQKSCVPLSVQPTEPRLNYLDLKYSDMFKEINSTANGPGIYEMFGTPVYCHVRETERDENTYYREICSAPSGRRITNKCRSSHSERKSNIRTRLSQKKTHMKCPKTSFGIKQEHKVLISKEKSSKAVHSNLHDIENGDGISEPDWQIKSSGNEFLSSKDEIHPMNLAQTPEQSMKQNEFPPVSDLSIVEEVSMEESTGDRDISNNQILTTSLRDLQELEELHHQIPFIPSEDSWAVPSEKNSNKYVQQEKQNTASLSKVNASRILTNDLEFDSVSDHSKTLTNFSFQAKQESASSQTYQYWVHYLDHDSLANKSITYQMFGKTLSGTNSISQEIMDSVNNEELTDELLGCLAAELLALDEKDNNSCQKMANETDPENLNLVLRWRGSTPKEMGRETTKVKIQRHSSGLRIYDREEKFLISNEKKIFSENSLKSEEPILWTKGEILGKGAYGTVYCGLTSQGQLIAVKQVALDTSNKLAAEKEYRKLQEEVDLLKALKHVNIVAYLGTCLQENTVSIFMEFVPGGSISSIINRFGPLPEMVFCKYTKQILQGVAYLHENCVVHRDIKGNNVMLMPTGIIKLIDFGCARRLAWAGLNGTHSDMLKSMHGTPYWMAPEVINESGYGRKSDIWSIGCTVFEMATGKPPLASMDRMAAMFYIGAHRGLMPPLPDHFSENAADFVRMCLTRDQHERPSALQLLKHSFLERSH

[8] = system: Mast/stem cell growth factor receptor Kit (Homo sapiens), P10721 [D816V]; assay: Selectivity interaction (KinomeScan (DiscoverX)) EUB0000698a KIT; conditions: at 10 µM
[9] = molecular target: BMP-2-inducible protein kinase (Homo sapiens) (UniProt Q9NSY1); assay: Selectivity interaction (KinomeScan (DiscoverX)) EUB0000702a BMP2K; conditions: at 1 µM
[10] = molecular target: T2, Tyrosine-protein kinase JAK3 (Homo sapiens) (UniProt P52333); assay: Selectivity interaction (KinomeScan (DiscoverX)) EUB0000702a JAK3; conditions: at 1 µM
T2 sequence (whole entry): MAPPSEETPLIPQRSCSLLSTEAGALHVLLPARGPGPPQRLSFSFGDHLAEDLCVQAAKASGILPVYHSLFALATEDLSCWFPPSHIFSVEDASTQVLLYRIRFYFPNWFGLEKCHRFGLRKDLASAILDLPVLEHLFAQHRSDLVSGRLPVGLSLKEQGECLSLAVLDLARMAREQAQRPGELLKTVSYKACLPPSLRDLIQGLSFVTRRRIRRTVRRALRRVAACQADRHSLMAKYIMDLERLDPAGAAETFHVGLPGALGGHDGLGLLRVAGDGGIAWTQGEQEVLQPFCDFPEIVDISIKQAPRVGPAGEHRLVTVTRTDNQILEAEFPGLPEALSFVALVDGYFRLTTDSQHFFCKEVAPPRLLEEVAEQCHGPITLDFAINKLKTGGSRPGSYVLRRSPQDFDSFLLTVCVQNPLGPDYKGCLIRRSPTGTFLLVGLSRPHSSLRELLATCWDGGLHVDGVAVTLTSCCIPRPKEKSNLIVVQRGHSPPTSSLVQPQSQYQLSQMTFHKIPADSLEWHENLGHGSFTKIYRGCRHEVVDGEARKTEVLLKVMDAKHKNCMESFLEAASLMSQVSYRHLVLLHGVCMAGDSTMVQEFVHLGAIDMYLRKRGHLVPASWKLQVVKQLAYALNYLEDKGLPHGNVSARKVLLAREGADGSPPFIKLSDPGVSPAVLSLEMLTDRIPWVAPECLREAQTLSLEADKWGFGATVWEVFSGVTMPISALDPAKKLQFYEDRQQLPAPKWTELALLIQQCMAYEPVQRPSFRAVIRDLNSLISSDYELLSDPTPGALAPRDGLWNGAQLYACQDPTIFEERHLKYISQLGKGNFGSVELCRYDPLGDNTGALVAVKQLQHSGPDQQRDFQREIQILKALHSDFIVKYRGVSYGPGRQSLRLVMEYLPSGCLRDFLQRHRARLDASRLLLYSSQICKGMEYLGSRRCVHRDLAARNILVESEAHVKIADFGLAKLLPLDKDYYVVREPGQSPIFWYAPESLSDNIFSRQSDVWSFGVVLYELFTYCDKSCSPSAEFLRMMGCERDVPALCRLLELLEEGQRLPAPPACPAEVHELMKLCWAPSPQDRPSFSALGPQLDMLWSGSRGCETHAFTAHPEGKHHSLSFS

[11] = molecular target: Serine/threonine-protein kinase Chk1 (Homo sapiens) (UniProt O14757); assay: Selectivity interaction (Kinase panel (University of Dundee)) EUB0000169b CHEK1; conditions: at 10 µM
Chain of Serine/threonine-protein kinase Chk1 (Homo sapiens) (O14757 whole entry): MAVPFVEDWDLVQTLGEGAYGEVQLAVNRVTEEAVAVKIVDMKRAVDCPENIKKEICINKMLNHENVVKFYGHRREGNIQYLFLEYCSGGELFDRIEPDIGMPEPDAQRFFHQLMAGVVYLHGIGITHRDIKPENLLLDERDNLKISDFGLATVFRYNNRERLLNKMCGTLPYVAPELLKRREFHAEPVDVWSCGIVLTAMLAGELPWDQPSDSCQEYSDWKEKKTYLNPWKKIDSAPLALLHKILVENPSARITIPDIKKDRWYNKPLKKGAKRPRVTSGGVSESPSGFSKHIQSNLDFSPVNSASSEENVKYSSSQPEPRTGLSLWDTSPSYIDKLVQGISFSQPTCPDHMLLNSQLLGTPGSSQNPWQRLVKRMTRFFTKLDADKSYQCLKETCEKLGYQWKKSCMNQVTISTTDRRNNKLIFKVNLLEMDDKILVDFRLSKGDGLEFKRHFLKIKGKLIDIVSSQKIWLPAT

Chain of Non-receptor tyrosine-protein kinase TYK2 (P29597 whole entry): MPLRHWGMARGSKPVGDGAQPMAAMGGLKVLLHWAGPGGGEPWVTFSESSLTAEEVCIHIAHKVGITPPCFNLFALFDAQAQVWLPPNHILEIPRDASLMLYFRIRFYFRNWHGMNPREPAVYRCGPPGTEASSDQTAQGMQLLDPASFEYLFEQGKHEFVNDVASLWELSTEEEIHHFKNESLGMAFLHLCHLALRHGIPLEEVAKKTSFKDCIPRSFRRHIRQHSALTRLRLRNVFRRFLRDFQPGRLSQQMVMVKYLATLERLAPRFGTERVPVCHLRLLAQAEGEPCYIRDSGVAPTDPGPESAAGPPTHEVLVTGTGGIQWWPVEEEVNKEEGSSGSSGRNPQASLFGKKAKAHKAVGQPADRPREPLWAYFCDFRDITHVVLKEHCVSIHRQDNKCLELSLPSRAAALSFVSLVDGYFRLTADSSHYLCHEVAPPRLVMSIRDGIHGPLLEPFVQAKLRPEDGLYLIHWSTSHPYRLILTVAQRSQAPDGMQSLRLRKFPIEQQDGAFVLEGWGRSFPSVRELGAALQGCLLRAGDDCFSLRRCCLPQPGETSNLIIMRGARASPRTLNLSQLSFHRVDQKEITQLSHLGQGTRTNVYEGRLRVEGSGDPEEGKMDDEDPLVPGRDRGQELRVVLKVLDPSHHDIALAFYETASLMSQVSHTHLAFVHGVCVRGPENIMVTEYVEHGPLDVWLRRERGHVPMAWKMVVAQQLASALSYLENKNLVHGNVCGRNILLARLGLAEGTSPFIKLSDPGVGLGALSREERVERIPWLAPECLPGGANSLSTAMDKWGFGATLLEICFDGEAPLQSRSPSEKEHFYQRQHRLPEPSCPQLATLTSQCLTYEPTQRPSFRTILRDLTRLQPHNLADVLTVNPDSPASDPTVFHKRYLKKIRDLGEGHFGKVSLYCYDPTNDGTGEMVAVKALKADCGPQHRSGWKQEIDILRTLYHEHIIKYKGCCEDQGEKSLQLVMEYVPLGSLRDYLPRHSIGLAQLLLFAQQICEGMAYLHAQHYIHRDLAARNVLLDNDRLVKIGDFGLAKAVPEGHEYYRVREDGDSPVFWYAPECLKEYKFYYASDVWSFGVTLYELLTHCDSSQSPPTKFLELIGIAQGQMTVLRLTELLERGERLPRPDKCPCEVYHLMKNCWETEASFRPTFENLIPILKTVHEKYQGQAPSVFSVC
Chain of BMP-2-inducible protein kinase (Homo sapiens) (Q9NSY1 whole entry, looked up): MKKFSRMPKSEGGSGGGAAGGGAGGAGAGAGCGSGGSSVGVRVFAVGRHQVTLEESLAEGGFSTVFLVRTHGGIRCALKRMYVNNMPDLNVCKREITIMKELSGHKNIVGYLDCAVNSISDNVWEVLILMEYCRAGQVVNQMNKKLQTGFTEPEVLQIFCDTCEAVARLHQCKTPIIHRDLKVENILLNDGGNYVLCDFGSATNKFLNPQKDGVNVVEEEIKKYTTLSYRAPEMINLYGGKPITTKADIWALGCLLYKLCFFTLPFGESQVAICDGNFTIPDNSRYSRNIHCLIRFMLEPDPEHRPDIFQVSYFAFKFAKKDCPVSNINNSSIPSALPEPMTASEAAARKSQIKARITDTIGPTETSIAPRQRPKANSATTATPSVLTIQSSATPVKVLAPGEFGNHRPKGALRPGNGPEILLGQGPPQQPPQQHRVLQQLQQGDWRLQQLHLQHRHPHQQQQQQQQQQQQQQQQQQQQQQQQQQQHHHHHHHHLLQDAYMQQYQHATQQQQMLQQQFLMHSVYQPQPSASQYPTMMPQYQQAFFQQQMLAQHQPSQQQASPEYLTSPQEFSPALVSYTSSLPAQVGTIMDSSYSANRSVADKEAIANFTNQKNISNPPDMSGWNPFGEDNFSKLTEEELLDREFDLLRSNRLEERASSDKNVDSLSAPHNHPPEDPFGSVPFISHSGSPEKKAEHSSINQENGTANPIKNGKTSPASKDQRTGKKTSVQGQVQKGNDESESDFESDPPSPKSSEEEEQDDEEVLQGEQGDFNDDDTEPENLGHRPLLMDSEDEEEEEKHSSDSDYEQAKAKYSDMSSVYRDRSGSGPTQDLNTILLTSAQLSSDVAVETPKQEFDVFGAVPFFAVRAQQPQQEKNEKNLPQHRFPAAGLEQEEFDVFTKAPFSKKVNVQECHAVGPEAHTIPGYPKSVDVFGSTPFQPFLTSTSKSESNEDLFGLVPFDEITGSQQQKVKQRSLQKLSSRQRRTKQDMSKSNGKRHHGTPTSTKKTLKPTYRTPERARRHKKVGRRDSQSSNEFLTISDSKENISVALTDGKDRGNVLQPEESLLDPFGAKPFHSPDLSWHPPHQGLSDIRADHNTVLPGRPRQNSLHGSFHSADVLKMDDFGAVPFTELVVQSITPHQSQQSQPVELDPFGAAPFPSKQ
Chain of Mast/stem cell growth factor receptor Kit (Homo sapiens), P10721 [D816V] (P10721 whole entry D816V): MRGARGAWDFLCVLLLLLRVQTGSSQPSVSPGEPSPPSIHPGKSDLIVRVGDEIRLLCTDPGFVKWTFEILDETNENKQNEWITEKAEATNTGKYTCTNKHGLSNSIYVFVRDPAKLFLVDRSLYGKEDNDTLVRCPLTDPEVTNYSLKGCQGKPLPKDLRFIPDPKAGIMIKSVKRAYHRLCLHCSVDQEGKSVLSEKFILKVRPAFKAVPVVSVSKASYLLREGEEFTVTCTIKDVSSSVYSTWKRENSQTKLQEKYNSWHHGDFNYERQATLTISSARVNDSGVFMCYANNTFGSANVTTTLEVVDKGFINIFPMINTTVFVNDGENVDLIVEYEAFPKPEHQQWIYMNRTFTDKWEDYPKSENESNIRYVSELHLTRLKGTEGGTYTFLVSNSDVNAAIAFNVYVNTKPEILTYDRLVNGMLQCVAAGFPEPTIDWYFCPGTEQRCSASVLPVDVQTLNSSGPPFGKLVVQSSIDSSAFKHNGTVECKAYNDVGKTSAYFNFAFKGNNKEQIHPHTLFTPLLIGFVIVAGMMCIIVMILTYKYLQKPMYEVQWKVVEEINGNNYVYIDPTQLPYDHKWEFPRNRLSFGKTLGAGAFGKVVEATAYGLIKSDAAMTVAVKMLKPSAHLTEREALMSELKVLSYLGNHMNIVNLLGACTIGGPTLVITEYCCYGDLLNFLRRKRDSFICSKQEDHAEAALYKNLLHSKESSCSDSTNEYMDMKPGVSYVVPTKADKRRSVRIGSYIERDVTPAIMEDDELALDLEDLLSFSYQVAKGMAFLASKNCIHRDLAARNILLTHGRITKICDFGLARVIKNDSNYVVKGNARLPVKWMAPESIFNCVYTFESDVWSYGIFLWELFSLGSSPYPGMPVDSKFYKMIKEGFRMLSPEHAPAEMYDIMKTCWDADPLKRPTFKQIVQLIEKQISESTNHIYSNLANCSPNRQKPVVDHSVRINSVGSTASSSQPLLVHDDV
Chain of Serine/threonine-protein kinase TAO2 (Homo sapiens) (Q9UL54 whole entry): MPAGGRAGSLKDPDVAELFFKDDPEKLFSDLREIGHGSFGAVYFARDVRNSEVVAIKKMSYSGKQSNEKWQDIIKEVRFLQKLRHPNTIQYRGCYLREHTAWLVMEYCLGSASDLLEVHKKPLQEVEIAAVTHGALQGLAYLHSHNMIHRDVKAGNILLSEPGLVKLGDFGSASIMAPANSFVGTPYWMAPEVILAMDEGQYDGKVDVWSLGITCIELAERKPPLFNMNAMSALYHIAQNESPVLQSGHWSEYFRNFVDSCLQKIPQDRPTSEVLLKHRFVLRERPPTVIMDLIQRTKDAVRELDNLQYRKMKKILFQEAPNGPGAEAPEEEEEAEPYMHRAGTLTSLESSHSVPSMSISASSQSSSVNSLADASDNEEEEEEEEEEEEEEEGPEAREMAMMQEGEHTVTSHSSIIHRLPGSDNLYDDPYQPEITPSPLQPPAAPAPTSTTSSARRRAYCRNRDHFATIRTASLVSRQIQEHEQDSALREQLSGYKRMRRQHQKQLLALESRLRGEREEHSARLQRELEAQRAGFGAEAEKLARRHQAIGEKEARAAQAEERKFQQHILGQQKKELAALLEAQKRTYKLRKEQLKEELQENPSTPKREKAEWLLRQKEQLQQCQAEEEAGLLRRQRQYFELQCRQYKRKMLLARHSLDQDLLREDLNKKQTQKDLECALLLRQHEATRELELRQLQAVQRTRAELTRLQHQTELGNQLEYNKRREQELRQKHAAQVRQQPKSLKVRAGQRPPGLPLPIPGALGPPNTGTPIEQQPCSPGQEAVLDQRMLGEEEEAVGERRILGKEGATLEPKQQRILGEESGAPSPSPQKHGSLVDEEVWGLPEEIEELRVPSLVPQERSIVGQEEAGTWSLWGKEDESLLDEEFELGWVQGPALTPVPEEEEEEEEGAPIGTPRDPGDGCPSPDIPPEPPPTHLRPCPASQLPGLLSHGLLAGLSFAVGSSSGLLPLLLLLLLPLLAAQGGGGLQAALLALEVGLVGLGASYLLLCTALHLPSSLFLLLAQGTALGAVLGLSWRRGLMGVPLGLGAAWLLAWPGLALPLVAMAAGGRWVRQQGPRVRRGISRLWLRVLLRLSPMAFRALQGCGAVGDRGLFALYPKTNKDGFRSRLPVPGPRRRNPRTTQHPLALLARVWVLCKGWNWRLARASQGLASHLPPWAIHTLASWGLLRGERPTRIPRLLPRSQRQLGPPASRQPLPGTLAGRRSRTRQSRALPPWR

Structure (SMILES): CNC(=O)c1ccc(Nc2ncc(C(F)(F)F)c(NCc3nccnc3N(C)S(C)(=O)=O)n2)cc1 [DEFACTINIB]
% of control [7]: 1.7%

Structure (SMILES): COc1cc2ncn(-c3cc(OCc4ccccc4C(F)(F)F)c(C(N)=O)s3)c2cc1OC [GW843682X]
% of control [8]: 1.4%

Structure (SMILES): CN(c1ccnc(CNc2nc(Nc3ccc4c(c3)CC(=O)N4)ncc2C(F)(F)F)n1)S(C)(=O)=O [PF-00911705]
% of control [9]: 2.3% | % of control [10]: 1.9%

More lines, now with the values ahead:

% of control [1]: 8.3% | % of control [2]: 3.4% | % of control [3]: 5.5% | % of control [4]: 6.8% | % of control [5]: 1.6% | IC50 [6]: 254 nM
Structure (SMILES): CN1C(=O)c2sccc2N(C)c2nc(Nc3ccc(S(N)(=O)=O)cc3)ncc21

% of control [11]: 91%
Structure (SMILES): CC[C@@H]1C(=O)N(C)c2cnc(Nc3ccc(C(=O)NC4CCN(C)CC4)cc3OC)nc2N1C1CCCC1
